Assay results reported in patent US4912097A, “Novel 11 β-alkynylphenyl-10-nor-steroids” (Roussel Uclaf, priority 1986, dated 1990).
Read-outs that look alike come from different tables or passages of the source.

What was measured:
[1] = test system: thymocytes of surrenalectomised rats; test: Antiglucocorticoidal activity: incorporation of tritiated uridine in thymocytes treated with dexamethasone; assay type: cell-based, rat; settings: for opposition to the dexamethasone-caused diminution of incorporation of tritiated uridine (in words) / inhibition at 1 µM / inhibition at 0.1 µM / inhibition at 0.01 µM: 5·10^-8 M dexamethasone; for inhibition at 1 µM / inhibition at 0.1 µM / inhibition at 0.01 µM: Rattus norvegicus, Thymocyte, read-out: % inhibition of the effect of Dexamethasone; for inhibition at 1 µM: product tested 10^-6 M; for inhibition at 0.1 µM: product tested 10^-7 M; for inhibition at 0.01 µM: product tested 10^-8 M
Procedure: The technique employed was derived from the method described by Daune et al in Molecular Pharmacology, Vol. 13, 948-955 (1977) "The relationship between glucocorticold structure and effects upon thymocytes", for the thymocytes of the mouse. The thymocytes of surrenalectomised rats were incubated at 37° C. for 3 hours in a nutrient medium containing 5·10^-8 M of dexamethasone, in the presence or absence of a product to be studied at different concentrations. One added tritiated uridine, and continued the incubation for one hour. The incubates were cooled and treated with a 5% solution of trichloroacetic acid. After filtration on Whatman GF/A paper, and washing three times with a 5% trichloroacetic acid solution, the radioactivity retained by the filter was determined.

[2] = test system: gestation in the rat; test: Abortifacient activity in the rat; assay type: in vivo; settings: 3 mg/kg orally on Day D 9 of gestation; sacrificed 72 hours after treatment
Procedure: Day D 1 of gestation was determined by the presence of spermatozoids in the vaginal smears and on Day D 9 of gestation, the product was administered orally in suspension in carboxymethyl cellulose containing 0.5% of Tween. The animals were sacrificed 72 hours after the treatment and the uterus was examined to determine the state of gestation.

[3] = molecular target: T1, Progestogen Receptor of the Rabbit Uterus (Oryctolagus cuniculus, UniProt P06186); test: Relative bonding affinity (ARL), progestogen receptor of the rabbit uterus; assay type: binding; settings: for relative bonding affinity (ARL), Progestogen: displacement of tritiated R
T1 construct: The uteruses were removed, weighed and homogenized at 0° C; from tissue; host or cells: uterus of non-adult, estradiol-treated rabbits; high-speed supernatant of the homogenate
T1 sequence (P06186 1-930): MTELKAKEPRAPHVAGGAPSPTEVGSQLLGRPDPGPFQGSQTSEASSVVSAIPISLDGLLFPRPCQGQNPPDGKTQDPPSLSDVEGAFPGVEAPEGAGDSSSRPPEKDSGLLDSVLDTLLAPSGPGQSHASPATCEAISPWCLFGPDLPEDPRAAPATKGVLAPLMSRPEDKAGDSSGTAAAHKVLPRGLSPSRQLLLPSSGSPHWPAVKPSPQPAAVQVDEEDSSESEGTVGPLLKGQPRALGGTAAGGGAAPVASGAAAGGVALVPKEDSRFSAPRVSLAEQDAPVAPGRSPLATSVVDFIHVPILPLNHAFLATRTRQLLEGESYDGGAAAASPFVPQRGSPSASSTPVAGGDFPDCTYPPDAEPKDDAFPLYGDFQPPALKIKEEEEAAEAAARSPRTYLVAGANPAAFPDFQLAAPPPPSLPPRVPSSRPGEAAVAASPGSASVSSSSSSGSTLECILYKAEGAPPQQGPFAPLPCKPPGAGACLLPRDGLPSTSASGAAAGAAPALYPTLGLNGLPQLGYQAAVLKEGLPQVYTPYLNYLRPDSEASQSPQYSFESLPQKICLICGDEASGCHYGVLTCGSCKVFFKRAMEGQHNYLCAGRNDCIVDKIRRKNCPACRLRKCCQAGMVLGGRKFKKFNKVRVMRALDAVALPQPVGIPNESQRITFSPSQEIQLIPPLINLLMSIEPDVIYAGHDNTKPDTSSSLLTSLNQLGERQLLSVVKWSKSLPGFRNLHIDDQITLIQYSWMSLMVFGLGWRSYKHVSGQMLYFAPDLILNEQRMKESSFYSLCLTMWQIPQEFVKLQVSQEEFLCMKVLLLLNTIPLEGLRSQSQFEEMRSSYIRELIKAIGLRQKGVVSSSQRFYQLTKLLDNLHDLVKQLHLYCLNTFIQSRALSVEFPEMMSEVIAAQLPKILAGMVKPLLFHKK
Procedure: (§1) Study of the activity upon the hormonal receptors.
Non-adult rabbits of about 1 kg are given a cutaneous application of 25 μg of estradiol and 5 days after this treatment, the animals were sacrificed. The uteruses were removed, weighed and homogenized at 0° C. with the aid of a Potter polytertrafluoroethylene dish in a buffered TS solution ([…], HCl pH 7.4) (1 g of tissue per 50 ml of TS). The homogenate was then ultracentrifuged (105,000 g×90 mm) at 0° C. Aliquots of the supernatent fluid thus obtained were incubated at 0° C. for a period (t) with a constant concentration (T) of tritiated Product R (17, 21-dimethyl-19-nor-Δ^-4,9 -pregnadien-3,20-dione) in the presence of increasing concentrations (0-2500. 10^-9 M) either of R cold, or of progesterone cold, or of the product to be tested cold. The concentration of tritiated R bound (B) was then measured in each incubate by the technique of adsorbtion on dextran charcoal.
(§2) The calculation of the relative bonding affinity (ARL) was identical for all the receptors.
(§3) The 2 curves were plotted as follows: the percentage of the tritiated hormone bound B/T as a function of the logarithm of the concentration of the reference hormone cold and B/T as a function of the logarithm of the concentration of the product tested cold.
(§4) The straight line of the equation I50 =(B/T max+B/T min)/2. B/T max=percentage of the tritiated hormone bound for one incubation of this tritiated hormone at the concentration (T) was determined. B/T min=percentage of the tritiated hormone bound for one incubation of this tritiated hormone at the concentration (T) in the presence of a great excess of the cold hormone (2500·10^-9 M).
(§5) The intersections of the straight line I50 and of the curves make it possible to estimate the concentrations of the cold reference hormone (CH) and of the cold product tested (CX) which inhibits 50% of the bonding of the tritiated hormone on the receptor. The relative affinity of the bonding (ARL) of the product tested was determined by the equation [formula]

[4] = molecular target: T2, Gluoccocorticoid Receptor of the Rat Thymus (Rattus norvegicus, UniProt P06536); test: Relative bonding affinity (ARL), glucocorticoid receptor of the rat thymus; assay type: binding, rat (male Sprague Dawley EOPS); settings: for relative bonding affinity (ARL), Glucocorticoid: displacement of tritiated dexamethasone
T2 construct: The thymuses were removed and homogenized at 0° C; from tissue; host or cells: thymus of adrenalectomised male Sprague Dawley rats; high-speed supernatant of the homogenate
T2 sequence (P06536 1-795): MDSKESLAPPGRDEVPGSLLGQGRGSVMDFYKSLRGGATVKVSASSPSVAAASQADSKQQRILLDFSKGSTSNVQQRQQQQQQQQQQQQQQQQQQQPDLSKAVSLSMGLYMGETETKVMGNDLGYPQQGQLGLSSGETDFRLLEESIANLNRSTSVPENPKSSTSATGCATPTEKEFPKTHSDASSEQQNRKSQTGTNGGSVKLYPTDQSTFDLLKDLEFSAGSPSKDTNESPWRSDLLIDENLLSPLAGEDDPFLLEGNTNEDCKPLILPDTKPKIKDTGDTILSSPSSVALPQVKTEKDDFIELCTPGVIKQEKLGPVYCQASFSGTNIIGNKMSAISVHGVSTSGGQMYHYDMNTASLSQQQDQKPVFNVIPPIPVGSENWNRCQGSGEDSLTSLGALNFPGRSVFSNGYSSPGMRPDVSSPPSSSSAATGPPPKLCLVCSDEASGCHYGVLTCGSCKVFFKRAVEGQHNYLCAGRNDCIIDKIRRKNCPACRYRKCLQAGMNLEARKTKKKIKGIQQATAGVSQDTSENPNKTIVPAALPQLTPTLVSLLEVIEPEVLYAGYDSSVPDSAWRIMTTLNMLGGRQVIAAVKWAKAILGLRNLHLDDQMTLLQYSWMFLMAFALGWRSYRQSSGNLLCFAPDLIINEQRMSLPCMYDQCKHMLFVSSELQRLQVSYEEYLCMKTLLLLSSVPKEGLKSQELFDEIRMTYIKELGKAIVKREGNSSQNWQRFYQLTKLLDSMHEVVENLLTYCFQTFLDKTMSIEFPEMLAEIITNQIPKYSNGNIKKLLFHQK
Procedure: as §1
Male Sprague Dawley EOPS rats of 160 to 200 g were surrenalectomised and 4 to 8 days after this ablation, the animals were sacrificed. The thymuses were removed and homogenized at 0° C. in a 10 mM Tris, 0.25M saccharose, 2 mM dithiothreitol, HCl pH 7.4 buffer with the aid of a Potter polytetrafluoroethylene dish (1 g of tissue per 10 ml of TS). The homogenate was then ultracentrifuged (105,000×90 mn) at 0° C. Aliquots of the supernatent fluid thus obtained were incubated at 0° for a period (t) with a constant concentration (T) of tritiated dexamethasone in the presence of increasing concentrations (0-2500. 10^-9 M) either of cold dexamethasone, or of cold product to be tested. The concentration of tritiated dexamethasone bound (B) was then measured in each incubate by the technique of adsorption on dextran charcoal.
as §2, §3, §4, §5

[5] = 37° C., 3 hours + 1 hour tritiated uridine

Row | Compound | affinity for the progestogen receptor (in words) [3] | relative bonding affinity (ARL), Progestogen ([3]; time of incubation at 0°: 2H) | relative bonding affinity (ARL), Progestogen ([3]; time of incubation at 0°: 24H) | affinity for the glucocorticoid receptor (in words) [4] | relative bonding affinity (ARL), Glucocorticoid ([4]; time of incubation at 0°: 4H) | relative bonding affinity (ARL), Glucocorticoid ([4]; time of incubation at 0°: 24H) | incorporation of tritiated uridine (in words) ([1]; effect of glucocorticoid alone) | abortion (state of gestation) [2] | opposition to the dexamethasone-caused diminution of incorporation of tritiated uridine (in words) [1] | inhibition at 1 µM ([1]; symbol explained in footnote) | inhibition at 0.1 µM [1, 5] | inhibition at 0.01 µM [1, 5] | inhibition at 1 µM [1, 5]
1 | C[C@@H]1C[C@H]2[C@@H]3CCC4=CC(=O)C=C[C@]4(C)[C@@]3(F)[C@@H](O)C[C@]2(C)[C@@]1(O)C(=O)CO [dexamethasone, reference compound] | – | – | – | – | – | – | cause a diminution of the incorporation of tritiated uridine | – | – | – | – | – | –
2 | C#Cc1ccc([C@H]2C[C@@]3(C)[C@@H](CC[C@@]3(O)C#CC)[C@@H]3CCC4=CC(=O)CCC4=C32)cc1 [Example 3, 11β-(4-ethynylphenyl)-17α-(1-propynyl)-Δ^4,9-estradien-17β-ol-3-one] | very marked affinity | 44 | 167 | very marked affinity | 107 | 124 | – | complete abortion in all the animals | – | – | – | – | –
3 | C#Cc1ccc([C@H]2C[C@@]3(C)[C@@H](CC[C@@]3(O)C#CCl)[C@@H]3CCC4=CC(=O)CC[C@]45O[C@]235)cc1 [Example 8, 17α-chloroethynyl-9α,10α-epoxy-11β-(4-ethynylphenyl)-17-Δ^4-estraen-17β-ol-3-one] | very marked affinity | 38 | 285 | very marked affinity | 175 | 233 | – | complete abortion in all the animals | oppose this effect | – | 37% | 7% | 77%

Second part, led by results:

Row | affinity for the progestogen receptor (in words) [3] | relative bonding affinity (ARL), Progestogen ([3]; time of incubation at 0°: 2H) | relative bonding affinity (ARL), Progestogen ([3]; time of incubation at 0°: 24H) | affinity for the glucocorticoid receptor (in words) [4] | relative bonding affinity (ARL), Glucocorticoid ([4]; time of incubation at 0°: 4H) | relative bonding affinity (ARL), Glucocorticoid ([4]; time of incubation at 0°: 24H) | Compound | incorporation of tritiated uridine (in words) ([1]; effect of glucocorticoid alone) | abortion (state of gestation) [2] | opposition to the dexamethasone-caused diminution of incorporation of tritiated uridine (in words) [1] | inhibition at 1 µM ([1]; symbol explained in footnote) | inhibition at 0.1 µM [1, 5] | inhibition at 0.01 µM [1, 5] | inhibition at 1 µM [1, 5]
4 | very marked affinity | 51 | 325 | very marked affinity | 84 | 153 | C#Cc1ccc([C@H]2C[C@@]3(C)[C@@H](CC[C@@]3(O)C#CCl)[C@@H]3CCC4=CC(=O)CCC4=C32)cc1 [Example 5, 17α-(chloroethynyl)-11β-(4-ethynylphenyl)-Δ^4,9-estradien-17β-ol-3-one] | – | complete abortion in all the animals | oppose this effect | 100% | 84% | 47% | –
5 | very marked affinity | 41 | 124 | very marked affinity | 65 | 57 | C#Cc1ccc([C@H]2C[C@@]3(C)[C@@H](CC[C@@]3(O)CC=C)[C@@H]3CCC4=CC(=O)CCC4=C32)cc1 [Example 4, 11β-(4-ethynylphenyl)-17α-allyl-Δ^4,9-estradien-17β-ol-3-one] | – | complete abortion in all the animals | oppose this effect | – | 71% | 46% | 99%
